Test system: antiserum produced against the ergonovine KLH conjugate
Experiment: Competitive ELISA
Format: binding, rabbit
Conditions: for Concentration (ng/ml) of 50% A (A50) / IC50: predicted value for 50% maximal absorbance, linear regression, antiserum 1:1000, HSA-ergonovine coated plates; for IC50: read-out: Concentration (μM) of 50% A; for Cross Reactivity (%): relative to ergonovine
Experimental: Antiserum preparation: Three female New Zealand white rabbits were immunized with the HSA-ergonovine conjugate and two with the KLH-ergonovine conjugate. Initially, each rabbit was injected with 1 mg of the respective conjugate in 1 ml of phosphate buffered saline that had been emulsified with an equal amount of Freund's complete adjuvant. Booster injections of 0.2 mg of conjugate per rabbit, emulsified with Freund's incomplete adjuvant, were given at 5 and 10 weeks after the first injections. The rabbits were bled 8 and 16 days after each booster injection. Serum was collected after two cycles of low speed centrifugation. Serum from each rabbit was pooled before testing in the competitive enzyme linked immunosorbent assay (ELISA).
Competitive ELISA: Duplicate polystyrene ELISA plates were numbered and rinsed once with distilled water. The HSA-ergonovine conjugate [[…] in carbonate coating buffer (0.5μsodium carbonate, pH 9.6)] was pipetted into each well ([…]). After 2H at 30° C. the plates were washed 4 times quickly with physiologically buffered saline (PBS) Tween (0.02M phosphate, 0.15M NaCl, 3 mM KC1+0.05% TWEEN 20, pH 7.3). All subsequent rinse steps were done with PBS-Tween. Serial dilutions were made of […] compounds used in the competitive assay. All dilutions were made in PBS-Tween. These compounds and their initial concentrations were: agroclavine 0.5 mM, ergocryptine at 100 μM, unconjugated ergonovine at 1 μM, ergotamine at 100 μM, ergovaline at 10 μM, lysergol at 10 mM, dihydroergotamine at 200 μM and IAA at 1 mM. After placing 100 μl of each dilution in duplicate wells, an additional 100 μl of antiserum, produced against the ergonovine KLH conjugate, was added to each well at a dilution of 1:1000 and mixed. The plates were incubated for 2 H at 30° C. and again rinsed 4 times quickly. Protein-A alkaline phosphatase (0.5 μg/ml in PBS-Tween) was placed in wells (200 μl/well) and incubated for 2 H at 30° C. The plates were again rinsed 4 times. Substrate, SIGMA 104® phosphatase substrate (5 mg/ml), in 10% diethanolamine, pH 9.6 was added to each well (150 μl/well). The reaction was stopped after 30 min. with 3M NaOH (75 μl/well). The plates were read on a DYNATECH MINIREADER II® reader. Mean values were calculated from duplicate wells per plate and duplicate plates were averaged. From these values a percent maximal absorbance level was calculated.

| Compound | Concentration (ng/ml) of 50% A (A50) | Concentration (ng/ml) of 50% A (A50) (listed as Ergovaline) | IC50 | Cross Reactivity (%) | Cross Reactivity (%) (listed as Ergovaline) | Cross Reactivity (%) (listed as Lysergol) | Concentration (ng/ml) of 50% A (A50) (listed as ergocrytine) | Cross Reactivity (%) (listed as ergocrytine) |
| --- | --- | --- | --- | --- | --- | --- | --- | --- |
| CC(C)[C@H]1C(=O)N2CCC[C@H]2[C@]2(O)O[C@@](C)(NC(=O)[C@@H]3C=C4c5cccc6[nH]cc(c56)C[C@H]4N(C)C3)C(=O)N12 [ergovaline] | 8 ng/mL | below 100 ng/ml | 0.15 µM | 20% | ≥ 2% |  |  |  |
| CC1=C[C@@H]2c3cccc4[nH]cc(c34)C[C@H]2N(C)C1 [agroclavine] |  |  | 3.2 µM |  |  |  |  |  |
| C[C@@H](CO)NC(=O)[C@@H]1C=C2c3cccc4[nH]cc(c34)C[C@H]2N(C)C1 [ergonovine] | 1.6 ng/mL |  | 0.05 µM | 100% |  |  |  |  |
| CN1C[C@H](C(=O)N[C@]2(C)O[C@@]3(O)[C@@H]4CCCN4C(=O)[C@H](Cc4ccccc4)N3C2=O)C=C2c3cccc4[nH]cc(c34)C[C@H]21 [ergotamine] |  |  | 0.4 µM |  |  |  |  |  |
| CN1C[C@H](CO)C=C2c3cccc4[nH]cc(c34)C[C@H]21 [lysergol] | 940 ng/mL |  | 3.7 µM | 4% |  | less than 1% |  |  |
| CC(C)C[C@H]1C(=O)N2CCC[C@H]2[C@]2(O)O[C@](NC(=O)[C@@H]3C=C4c5cccc6[nH]cc(c56)C[C@H]4N(C)C3)(C(C)C)C(=O)N12 [ergocryptine] | 33 ng/mL |  | 0.59 µM | 5% |  |  | below 100 ng/ml | ≥ 2% |
| CN1C[C@H](C(=O)N[C@]2(C)O[C@@]3(O)[C@@H]4CCCN4C(=O)[C@H](Cc4ccccc4)N3C2=O)C[C@@H]2c3cccc4[nH]cc(c34)C[C@H]21 [dihydroergotamine] | 6833 ng/mL |  |  |  |  |  |  |  |

Reference: patent publication US5468486A, “Vaccine containing a protein alkaloid conjugate for the treatment of fescue toxicosis” (priority 1994, dated 1995)
